Bridge positions count the residues as written; N and C are the ends. Square brackets hold non-standard residues; d marks the D form. Ends that are not written are not given here. Peptide text beside a SMILES is read from it. I, II: the chains in the order shown. ξ: configuration not given here. αMeF = C[C@](N)(Cc1ccccc1)C(=O)O; ξF = NC(Cc1ccccc1)C(=O)O
Tests used:
RXFP3 [1] = molecular target: T1, RXFP3 (Homo sapiens, UniProt Q9NSD7); test: Eu-H3B1-22R competition binding assay in CHO-K1-RXFP3 cells; conditions: 5 nM Eu-H3B1-22R, mean ± SEM (n); for Ki: Table 2, read-out: Eu-H3B1-22R pKi (converted)
T1 construct: expressed in transfected cells
T1 sequence (Q9NSD7 1-469): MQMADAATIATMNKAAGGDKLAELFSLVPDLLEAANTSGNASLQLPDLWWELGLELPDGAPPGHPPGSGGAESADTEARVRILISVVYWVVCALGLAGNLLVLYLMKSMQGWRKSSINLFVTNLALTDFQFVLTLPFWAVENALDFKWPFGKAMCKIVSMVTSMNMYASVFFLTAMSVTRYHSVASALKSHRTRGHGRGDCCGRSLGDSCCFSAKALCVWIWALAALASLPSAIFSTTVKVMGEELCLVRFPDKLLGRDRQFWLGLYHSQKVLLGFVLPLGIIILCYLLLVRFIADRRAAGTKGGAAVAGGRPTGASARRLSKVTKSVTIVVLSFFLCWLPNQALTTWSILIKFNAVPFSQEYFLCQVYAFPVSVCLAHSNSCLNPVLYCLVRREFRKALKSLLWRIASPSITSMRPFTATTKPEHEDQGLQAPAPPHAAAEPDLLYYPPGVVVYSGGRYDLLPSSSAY
Protocol: An Eu-H3B1-22R competition binding assay was conducted in CHO-K1-RXFP3 cells.
(§1) Competition binding curves for each peptide were performed in triplicate and each experiment was performed independently at least three times. Fluorescent measurements were carried out at excitation of 340 nm and emission of 614 nm on a BMG POLARstar plate reader (BMG Labtech, Melbourne, Australia). Pooled data were presented as mean±S.E.M. of specific binding and are fitted using a one-site binding curve in GraphPad Prism version 8 (GraphPad Inc., San Diego, USA). Statistical analyses were conducted using one-way analysis of variance with uncorrected Fisher's least significant difference (LSD) post-hoc analysis in GraphPad Prism version 9.
(§2) Competition binding and cAMP activity assay were conducted by a procedure analogous to that described above for Example 3. The results are shown in FIG. 24 (RXFP3) and FIG. 25 (RXFP4).

RXFP3 [2] = molecular target: T1, RXFP3; test: Inhibition of forskolin-induced cAMP activity in CHO-K1-RXFP3 cells (pCRE β-galactosidase reporter); format: cell-based; conditions: 5 μM forskolin, 6 hours; for EC50: Table 2, read-out: cAMP pEC50 (converted)
Protocol: Since RXFP3 is coupled to Gi/o proteins, peptides were tested for their ability to activate RXFP3 as measured via their ability to inhibit forskolin-induced cAMP activity in CHO-K1-RXFP3 or CHO-K1-RXFP4 cells transfected with a pCRE (cAMP Response Element) β-galactosidase reporter plasmid (as described in Belgi, A et al., Structure and function relationship of murine insulin-like peptide 5 (INSL5): free C-terminus is essential for RXFP4 receptor binding and activation. Biochemistry 2011, 50 (39), 8352-61; and Haugaard-Kedstrom, L. M et al., Synthesis and pharmacological characterization of a europium-labelled single-chain antagonist for binding studies of the relaxin-3 receptor RXFP3. Amino Acids 2015, 47 (6), 1267-71). For agonist assays, cells were stimulated with forskolin (5 μM for RXFP3, 1 μM for RXFP4)±increasing concentrations of each peptide for 6 hours. Data were expressed as the % forskolin activity, whereby 100% was defined as forskolin alone and 0% as maximum agonist stimulation (1 μM Analogue 2 for RXFP3 and 1 μM Analogue 13 for RXFP4). Data were analysed and plotted using GraphPad Prism 9 and are expressed as the mean±SEM of the pooled data. Statistical analysis was conducted using one-way ANOVA with Uncorrected Fisher's LSD post-hoc analysis using GraphPad Prism 9.
as §2

RXFP4 [3] = molecular target: T2, RXFP4 (Homo sapiens, UniProt Q8TDU9); test: Inhibition of forskolin-induced cAMP activity in CHO-K1-RXFP4 cells (pCRE β-galactosidase reporter); format: cell-based; set-up: expressed in transfected cells; conditions: for cAMP pEC50: RXFP4, CHO-K1-RXFP4 cells, 1 μM forskolin, 6 hours, Table 3
Protocol: For agonist assays, cells were stimulated with forskolin (5 μM for RXFP3, 1 μM for RXFP4)±increasing concentrations of each peptide for 6 hours. Data were expressed as the % forskolin activity, whereby 100% was defined as forskolin alone and 0% as maximum agonist stimulation (1 μM Analogue 2 for RXFP3 and 1 μM Analogue 13 for RXFP4). Data were analysed and plotted using GraphPad Prism 9 and are expressed as the mean±SEM of the pooled data. Statistical analysis was conducted using one-way ANOVA with Uncorrected Fisher's LSD post-hoc analysis using GraphPad Prism 9.
(§3) An additional analogue of INSL5 was utilised as a control, INSL5-A13, having an A chain (SEQ ID NO: 9) and a B chain (SEQ ID NO: 10) with a first disulfide bond between Cys 1 of the A chain and Cys 7 of the B chain, and a second disulfide bond between Cys 14 of the A chain and Cys 19 of the B chain:
as §2

RXFP4 [4] = molecular target: T2, RXFP4; test: Eu-R3/I5 competition binding assay in CHO-K1-RXFP4 cells; set-up: expressed in transfected cells; conditions: RXFP4, CHO-K1-RXFP4 cells, 5 nM Eu-R3/I5, Table 3
Protocol: An Eu-R3/15 competition binding assay in CHO-K1-RXFP4 cells was carried out.
as §1, §3, §2

RXFP4 [5] = molecular target: T2, RXFP4; test: SmBiT-R3/I5 NanoBiT competition binding assay, HEK-LgBiT-RXFP4 membrane fractions; set-up: expressed in transfected cells; conditions: RXFP4, 2 nM SmBiT-R3/I5; Table 5; read-out: SmBiT R3/I5 pKi (converted)
Protocol: Furthermore, a SmBiT-R3/15 competition binding assay was performed. All peptides were examined for their binding affinity to RXFP4 utilizing a competition NanoLuc® Binary Technology (NanoBiT™) binding assay. Briefly, HEK-LgBiT-RXFP4 crude membrane fractions (25 μg protein) were incubated with 2 nM SmBiT-R3/15 and increasing concentrations of competing peptides in binding buffer (0.5% BSA, 20 mM HEPES pH 7.5, 1.5 mM CaCl2), 50 mM NaCl) in a total of 100 μL in 96-well Optiplates (PerkinElmer, Waltham MA, USA). After 1 hour of shaking at room temperature, 1.25 μM final concentration of coelenterazine 400a was added, and luminescence measurements were recorded using a MicroBeta Microplate Counter (PerkinElmer, Waltham MA, USA). Each concentration-response curve was tested in triplicate, and each experiment was repeated at least three times with data being expressed as the mean±standard error of the mean (S.E.M) % specific.

[6] = In vitro serum stability in human serum at 37° C.; conditions: serum
[7] = molecular target: T3, RXFP4 (relaxin family peptide receptor 4) on CHO-K1-RXFP4 cells (UniProt Q8TDU9 1-374, limits assumed); test: cell-based or functional assay
[8] = molecular target: T3, RXFP4 (relaxin family peptide receptor …); test: competition with 5 nM Eu-DTPA-R3/I5 on CHO-K1-RXFP4 cells
[9] = molecular target: T4, RXFP3 (relaxin family peptide receptor 3) on CHO-K1-RXFP3 cells (UniProt Q9NSD7 1-469, limits assumed); test: cell-based or functional assay
T4 sequence (looked up): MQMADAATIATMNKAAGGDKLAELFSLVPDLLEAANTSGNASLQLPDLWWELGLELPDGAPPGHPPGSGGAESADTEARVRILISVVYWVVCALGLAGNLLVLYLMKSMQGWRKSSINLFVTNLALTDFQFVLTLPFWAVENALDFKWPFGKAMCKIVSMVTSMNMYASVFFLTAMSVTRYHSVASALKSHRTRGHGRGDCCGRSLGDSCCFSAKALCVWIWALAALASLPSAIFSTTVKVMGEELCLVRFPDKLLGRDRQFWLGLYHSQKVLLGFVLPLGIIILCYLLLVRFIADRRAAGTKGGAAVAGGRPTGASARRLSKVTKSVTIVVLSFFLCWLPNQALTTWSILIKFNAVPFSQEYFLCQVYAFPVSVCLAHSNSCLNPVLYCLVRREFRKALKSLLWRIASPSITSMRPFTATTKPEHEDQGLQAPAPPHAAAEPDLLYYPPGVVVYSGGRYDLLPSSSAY

[10] = molecular target: T3, RXFP4 (relaxin family peptide receptor …); test: competition with Eu-R3/I5 on CHO-K1-RXFP4 cells
[11] = molecular target: T4, RXFP3 (relaxin family peptide receptor …); test: competition with Eu-H3B1-22R on CHO-K1-RXFP3 cells
[12] = molecular target: T4, RXFP3 (relaxin family peptide receptor …); test: cell-based or functional assay; remark: listed apart in the source

T3 sequence (Q8TDU9 whole entry): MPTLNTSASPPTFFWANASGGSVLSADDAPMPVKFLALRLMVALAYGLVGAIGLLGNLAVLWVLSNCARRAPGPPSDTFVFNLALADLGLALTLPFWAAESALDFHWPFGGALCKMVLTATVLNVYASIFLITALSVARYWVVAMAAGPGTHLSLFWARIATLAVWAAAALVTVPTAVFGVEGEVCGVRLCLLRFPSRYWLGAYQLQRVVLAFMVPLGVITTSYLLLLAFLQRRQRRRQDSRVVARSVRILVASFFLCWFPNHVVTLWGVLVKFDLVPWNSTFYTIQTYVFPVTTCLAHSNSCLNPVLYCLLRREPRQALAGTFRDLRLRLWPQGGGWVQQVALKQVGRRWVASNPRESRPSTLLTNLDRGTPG
T2 sequence (Q8TDU9 whole entry): as above

With `CC[C@H](C)[C@@H]1NC(=O)[C@H](Cc2ccccc2)NC(=O)[C@H](CCC(=O)O)NC(=O)[C@H](CCCNC(=N)N)NC(=O)CNC(=O)[C@@H](NC(=O)[C@H](CC(C)C)NC(=O)[C@H](CCCNC(=N)N)NC(=O)[C@@H](NC(=O)CNC(=O)[C@H](Cc2ccc(O)cc2)NC(=O)[C@@H]2CCCN2C(=O)[C@H](C)NC(=O)[C@H](C)NC(=O)[C@@H](N)CCCNC(=N)N)C(C)C)CSSC[C@@H]2NC(=O)[C@@H](NC(=O)[C@H](CO)NC(=O)[C@H](CO)NC(=O)[C@H](CO)NC(=O)[C@H](CC(C)C)NC(=O)CNC(=O)[C@H](C)NC(=O)[C@H](CC(C)C)NC(=O)[C@@H](NC(=O)[C@@H](N)CC(=O)O)C(C)C)CSSC[C@H](NC(=O)CNC(=O)[C@H](Cc3c[nH]c4ccccc34)NC(=O)[C@H](CCCCN)NC2=O)C(=O)N[C@@H](CO)C(=O)N[C@@H](CCCCN)C(=O)N[C@@H](CO)C(=O)N[C@@H](CCC(=O)O)C(=O)N[C@@H]([C@@H](C)CC)C(=O)N[C@@H](CO)C(=O)N[C@@H](CO)C(=O)N[C@@H](CC(C)C)C(=O)N[C@H](C(=O)O)CSSC[C@@H](C(=O)NCC(=O)NCC(=O)N[C@@H](CO)C(=O)N[C@@H](CCCNC(=N)N)C(=O)N[C@@H](Cc2c[nH]c3ccccc23)C(=O)O)NC(=O)[C@H]([C@@H](C)O)NC(=O)[C@H](Cc2ccccc2)NC(=O)[C@H]([C@@H](C)CC)NC(=O)[C@H](C(C)C)NC(=O)[C@H](C)NC(=O)[C@H](CCCNC(=N)N)NC1=O` [H3 relaxin] the “Eu-H3B1-22R pKi” value (RXFP3 [1]; Table 2) was 7.64 ± 0.09 (4)^, the “cAMP pEC50” value (RXFP3 [2]; Table 2) was 9.08 ± 0.07 (5) and the “cAMP pEC50” value (RXFP4 [3]) was 8.94 ± 0.13 (4).

For `CC[C@H](C)[C@H](NC(=O)[C@H](Cc1ccccc1)NC(=O)C(Cc1ccccc1)NC(=O)[C@H](CCCNC(=N)N)NC(=O)CNC(=O)[C@@H](N)CO)C(=O)N[C@@H](CCCNC(=N)N)C(=O)NC(Cc1ccccc1)C(=O)N[C@H](C(=O)N[C@H](C(=O)N[C@@H](Cc1ccccc1)C(=O)N[C@H](C(=O)N[C@@H](CO)C(=O)NCC(=O)NCC(=O)N[C@@H](CO)C(=O)N[C@@H](CCCNC(=N)N)C(=O)N[C@@H](Cc1c[nH]c2ccccc12)C(=O)O)[C@@H](C)O)[C@@H](C)CC)C(C)C` (stereo partly drawn) [H3B10-27(13/17F)] (H-SGR[ξF]FIR[ξF]VIFTSGGSRW-OH; N-terminus assumed), the Ki (RXFP3 [1]) was greater than 10 µM, the EC50 (RXFP3 [2]) was greater than 10 µM and the “Eu-R3/I5 pKi” value (RXFP4 [4]) was “No binding (3)”. For the same molecule, the “cAMP pEC50” value (RXFP4 [3]) was “No activity (4)”.

In the case of `CC[C@H](C)[C@H](NC(=O)[C@H](Cc1ccc(O)cc1)NC(=O)[C@@H](NC(=O)[C@@H](NC(=O)[C@](C)(Cc1ccccc1)NC(=O)[C@H](CCCNC(=N)N)NC(=O)[C@@H](NC(=O)[C@H](Cc1ccc(O)cc1)NC(=O)[C@](C)(Cc1ccccc1)NC(=O)[C@H](CC(C)C)NC(=O)CNC(=O)[C@@H](N)CO)[C@@H](C)CC)C(C)C)[C@@H](C)CC)C(=O)N[C@@H](CCC(=O)O)C(=O)NCC(=O)NCC(=O)N[C@@H](CO)C(=O)N[C@@H](CCCNC(=N)N)C(=O)N[C@@H](Cc1c[nH]c2ccccc12)C(=O)O` [πI5B7-24-GG-S19E] (H-SGL[αMeF]YIR[αMeF]VIYIEGGSRW-OH; N-terminus and C-terminus assumed), the EC50 (RXFP4 [3]; RXFP4, Table 5, read-out: cAMP pEC50 (converted)) is reported as 0.0407 µM and the Ki (RXFP4 [5]) is reported as 0.00741 µM.

SGREFIRAVIFTSGGSRW-OH [H3B10-27] showed a Ki (RXFP3 [1]) greater than 10 µM, an EC50 (RXFP3 [2]) greater than 10 µM and a Ki (RXFP4 [4]; read-out: Eu-R3/I5 pKi (converted)) greater than 10 µM. The “cAMP pEC50” value (RXFP4 [3]) was “No activity (3)” and the half-life at 400 µg/mL [6] was roughly 20 min.

B1: Human insulin-like peptide 7 (INSL7), also known as human relaxin-3 (H3 relaxin) (ligand)
chain 1: DVLAGLSSSCCKWGCSKSEISSLC
chain 2: RAAPYGVRLCGREFIRAVIFTCGGSRW
modifications: disulfide I:10-I:15; not fully specified; cysteine pairing not given here
For B1, the “cAMP pEC50” value [7] was 8.94 and the pKi [8] was 8.42.

In the case of RAAPYGVRLSGREFIRAVIFTSR (23 residues) [H3B1-22R (Formula XI, known single chain antagonist of RXFP3)], the “RXFP3 Antagonist potency pIC50” value [9] is reported as 6.25, the binding result [10] is reported as “no binding” and the pKi [11] is reported as 7.64.

For SGREFIRAVIFTSR (14 residues) [H3B10-22R13/17EA (Formula XII, truncated form of H3B1-22R)], the binding result [10] was “no binding” and the pKi [11] was 6.08.

With SGRFFIRFVIFTSR (14 residues) [H3B10-22R13/17FF (Formula XIII, non-alpha-methylated analogue of Formula X)] the binding result [10] was “no binding” and the pKi [11] was 6.67.

In the case of SGREFIRAVIFTSGGSRW [H3B10-27 (native B10-27)], the “cAMP pEC50” value [12] is reported as less than 5.

From patent US20260265334A1, “STAPLED PEPTIDES” (THE FLOREY INSTITUTE OF NEUROSCIENCE AND MENTAL HEALTH, priority 2023, published 2026)
